Earlier results, collected in US7553863B2, “Ultrapure 4-methylpyrazole” (Paladin Labs (Barbados) Inc., priority 2005, dated 2009).

Legend:
[1] = H. Kohno et al., Cancer Sci. 2005
[2] = system: alcohol dehydrogenase; details: relative to 4-methylpyrazole; T. Li et al., Acta Chem. Scan. 1969
[3] = Eisses, 1995
[4] = system: brain levels of noradrenaline; details: in contrast to 4-methylpyrazole; E. MacDonald, Acta Pharmacol. et Toxicol. 1976

SMILES | mutagenicity and carcinogenicity [1] | fold less potency against alcohol dehydrogenase [2] | teratogenicity [3] | effect on brain levels of noradrenaline [4]
NN [Hydrazine] | known mutagens and carcinogens |  |  | 
c1cn[nH]c1 [Pyrazole] |  | 10 fold | known teratogen | detrimental effect
